A word on the IC50: it is the concentration needed to halve the response being measured.

One series addresses CYP3A4 (Homo sapiens, UniProt P08684). Kind of series: CYP3A4 inhibition assay. The series is classed as biochemical. Conditions: for increased CYP3A4 inhibition relative to the methyl ester 4a (factor): esters of primary alcohol 2; for CYP3A4 inhibition compared in words: versus dillapiol (14, 15: versus 13); for times more potent than dillapiol as CYP3A4 inhibitor: dillapiol = 1.

The test system of a further series is Colorado potato beetle. The following applies: in vivo bioassays; cited from earlier work.

Like-named read-outs stand apart in the source and are kept apart here.

CYP3A4, sequence (P08684 whole entry): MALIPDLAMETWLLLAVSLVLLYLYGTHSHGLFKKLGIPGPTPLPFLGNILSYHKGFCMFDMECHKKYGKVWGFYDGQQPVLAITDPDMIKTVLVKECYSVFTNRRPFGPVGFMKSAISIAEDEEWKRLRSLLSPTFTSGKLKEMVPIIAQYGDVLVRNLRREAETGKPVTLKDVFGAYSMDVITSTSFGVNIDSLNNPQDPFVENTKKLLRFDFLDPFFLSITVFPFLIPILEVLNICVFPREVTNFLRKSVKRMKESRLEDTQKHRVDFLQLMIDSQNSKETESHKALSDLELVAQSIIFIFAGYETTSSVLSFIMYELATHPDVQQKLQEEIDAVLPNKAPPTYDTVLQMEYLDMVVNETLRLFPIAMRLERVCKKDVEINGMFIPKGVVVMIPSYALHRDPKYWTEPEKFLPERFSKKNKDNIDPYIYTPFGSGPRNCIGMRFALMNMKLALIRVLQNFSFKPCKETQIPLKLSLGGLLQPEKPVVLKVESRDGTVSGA

In turn, `COc1c(CC(C)OC(C)=O)cc2c(c1OC)OCO2` (centres unmarked) [Compound 5a] showed an IC50 on CYP3A4 greater than 20 µM.
As for `C=CCc1cc2c(cc1OC)OCO2` [Compound 8b], in the series with Colorado potato beetle, the “insecticide synergism of pyrethrum” value was “increased in vivo synergism relative to dillapiol”.
`COc1c(CCCOC(=O)c2ccc(Cl)cc2)cc2c(c1OC)OCO2` [Compound 4i]: at CYP3A4, 1.6 µM corresponded to half-maximal inhibition (IC50) and the “increased CYP3A4 inhibition relative to the methyl ester 4a (factor)” value is recorded as “greater than 6”.
In the case of `COc1c(CCCOC(=O)C(c2ccccc2)c2ccccc2)cc2c(c1OC)OCO2` [Compound 4n], the “increased CYP3A4 inhibition by a factor, benzhydryl versus benzyl group (4m)” value at CYP3A4 was determined as 5.
The compound `O=C(OCCCc1cc2c(cc1OCc1ccccc1)OCO2)C(c1ccccc1)c1ccccc1` [Compound 11g] showed an IC50 on CYP3A4 of 1 µM.
As for `COc1c(CCCOC(=O)c2ccccc2)cc2c(c1OC)OCO2` [Compound 4g], the “insecticide synergism of pyrethrum” value in the series with Colorado potato beetle is reported as “no insecticide synergism”.
Consider `COc1c(CC(C)O)cc2c(c1OC)OCO2` (centres unmarked) [Compound 3], for which the “CYP3A4 inhibition compared in words” value on CYP3A4 is recorded as “less potent than dillapiol”.
On to `C=CCc1cc2c(cc1OCc1ccccc1OC)OCO2` [Compound 8g], for which, at CYP3A4, the “times more potent than dillapiol as CYP3A4 inhibitor” value came out at 0.9 times.
Take `CCCCCC(=O)OCCCc1cc2c(c(OC)c1OC)OCO2` [Compound 4d]: on CYP3A4, the “increased CYP3A4 inhibition relative to the methyl ester 4a (factor)” value was 2.8. For the same compound, the IC50 on CYP3A4 (human, recombinant CYP3A4 (BD Gentest), probe dibenzyl fluorescein (DBF)) was determined as 3.3 µM.
As for `COc1c(CCCOC(=O)c2ccccc2Cl)cc2c(c1OC)OCO2` [Compound 4h], the IC50 against CYP3A4 is 1.3 µM.
On to `COc1c(CCCOC(=O)c2ccc(Cl)cc2Cl)cc2c(c1OC)OCO2` [Compound 4j], for which the “increased CYP3A4 inhibition relative to the methyl ester 4a (factor)” value at CYP3A4 was “greater than 6”.
Take `COc1cc2c(cc1CCCOC(=O)C=Cc1ccccc1)OCO2` [Compound 11d]: the IC50 against CYP3A4 was 17.2 µM.
In the case of `C=CCc1cc2c(cc1OCc1ccccc1Cl)OCO2` [Compound 8f], the “times more potent than dillapiol as CYP3A4 inhibitor” value on CYP3A4 worked out at 86 times.
With `COc1c(CCCOC(C)=O)cc2c(c1OC)OCO2` [Compound 4a], on CYP3A4, the “CYP3A4 inhibition compared in words” value was “essentially the same inhibitory effect as dillapiol”. Also, the “insecticide synergism of pyrethrum” value with Colorado potato beetle was “no insecticide synergism”.
At CYP3A4, `COc1c(CCCOC(=O)C=Cc2ccccc2)cc2c(c1OC)OCO2` [Compound 4l] gave an IC50 of 2.4 µM.
For the compound `COc1c(CC(C)OC(=O)c2ccccc2)cc2c(c1OC)OCO2` (centres unmarked) [Compound 5g], the IC50 on CYP3A4 came out at 3.5 µM.
Turning to `O=C(C=Cc1ccccc1)OCCCc1cc2c(cc1OCc1ccccc1)OCO2` [Compound 11e], half-maximal inhibition at CYP3A4 (IC50) was put at 4.7 µM.
